Measurements taken from US20250213571A1, “TYK2 INHIBITORS AND USES THEREOF” (Alumis Inc., priority 2022, published 2025).

Assays:
[1] = target: human TYK2 (JH2domain-pseudokinase) (Homo sapiens (Human), UniProt P29597); test: TYK2 JH2 domain binding assay (KINOMEscan)
Outline: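 KINOMEscan competition: DNA-tagged NFkB-fusion kinase domains from HEK293 extracts (<0.1 nM) bound immobilized ligand with compound for 1 hour at room temperature, 0.9% DMSO. Bead-retained kinase was quantified by qPCR. Kd came from 11-point 3-fold series from 30,000 nM top, in duplicate, Hill fit with slope −1.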

TYK2 JH1 = TYK2 JH1 (Homo sapiens (Human), UniProt P29597); test: TYK2 JH1 binding (Kd, Table 2); details: JH1 domain
JAK3 JH1 = JAK3 JH1 (Homo sapiens (Human), UniProt P52333); test: JAK3 JH1 binding (Kd, Table 2); details: JH1 domain
JAK2 JH2 = JAK2 JH2 (Homo sapiens (Human), UniProt O60674); test: JAK2 JH2 binding (Kd, Table 2); details: JH2 domain
JAK2 JH1 = JAK2 JH1 (Homo sapiens (Human), UniProt O60674); test: JAK2 JH1 binding (Kd, Table 2); details: JH1 domain
JAK1 JH2 = JAK1 JH2 (Homo sapiens (Human), UniProt P23458); test: JAK1 JH2 binding (Kd, Table 2); details: JH2 domain
JAK1 JH1 = JAK1 JH1 (Homo sapiens (Human), UniProt P23458); test: JAK1 JH1 binding (Kd, Table 2); details: JH1 domain
IFNa, PBMCs, p-STAT3 = test: IFNa induced p-STAT3 in PBMCs; format: cell-based; details: Homo sapiens, PBMC, IFNa stimulated PBMCs
[2] = tested on: INFα Induced pSTAT5 in Human PBMC; test: INFα induced pSTAT5 in human PBMC; format: cell-based; details: 0.25 h, human PBMCs, INFα 5000 units/ml 15 minutes, p-STAT5, read-out: IFNa, PBMCs, p-STAT5 (IC50)
Experimental: Fresh Human PBMCs were resuspended in RPMI 1640 medium with 10% FBS. Cells were seeded in a round bottom 96-well plate at the concentration of 200,000 cells/well. A 10-point dilution series of test compound (top dose 10 uM, 1:5 dilution) was added to the well using the liquid dispenser (Tecan D300e) and incubated for 1 hour at 37 C. Then human INFα recombinant protein (R&D Systems) was added to the well at the final concentration of 5000 units/ml and incubated for 15 minutes at 37 C. Cell lysates were prepared and analyzed by Phospho STAT5 (Tyr693) Kit (Meso Scale Discovery) following manufacturer's protocol.
For calculation of the inhibition rate, the relative pSTAT5 signal of each well=pSTAT5 signal of each well−the average pSTAT5 signal of baseline.
The inhibition %=(the average pSTAT5 signal of INFα treatment wells−the relative of pSTAT5 signal in each compound containing well)/the average pSTAT5 signal of INFα treatment wells*100%
The curve was plotted as the inhibition % (y-axis) vs. compounds concentration (x-axis) and is fitted with log(inhibitor) vs. normalized response—Variable slope by GraphPad Prism7.0.

Chain of JAK2 JH1 (O60674 849-1124): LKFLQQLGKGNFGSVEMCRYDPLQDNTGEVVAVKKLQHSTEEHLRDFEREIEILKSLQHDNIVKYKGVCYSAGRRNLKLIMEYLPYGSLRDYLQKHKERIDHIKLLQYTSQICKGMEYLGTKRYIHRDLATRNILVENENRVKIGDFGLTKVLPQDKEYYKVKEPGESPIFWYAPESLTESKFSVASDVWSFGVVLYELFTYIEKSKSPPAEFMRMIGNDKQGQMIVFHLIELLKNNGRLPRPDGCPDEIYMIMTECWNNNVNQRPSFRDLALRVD
Chain of JAK1 JH1 (P23458 875-1153): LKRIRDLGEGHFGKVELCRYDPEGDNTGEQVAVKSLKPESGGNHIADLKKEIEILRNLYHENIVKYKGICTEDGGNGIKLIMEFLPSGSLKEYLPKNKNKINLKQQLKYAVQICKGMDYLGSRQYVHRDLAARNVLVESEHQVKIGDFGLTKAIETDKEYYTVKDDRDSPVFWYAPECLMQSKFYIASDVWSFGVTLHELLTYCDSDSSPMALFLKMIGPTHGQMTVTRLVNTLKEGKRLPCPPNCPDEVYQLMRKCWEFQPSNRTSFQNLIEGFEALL
Chain of JAK3 JH1 (P52333 822-1111): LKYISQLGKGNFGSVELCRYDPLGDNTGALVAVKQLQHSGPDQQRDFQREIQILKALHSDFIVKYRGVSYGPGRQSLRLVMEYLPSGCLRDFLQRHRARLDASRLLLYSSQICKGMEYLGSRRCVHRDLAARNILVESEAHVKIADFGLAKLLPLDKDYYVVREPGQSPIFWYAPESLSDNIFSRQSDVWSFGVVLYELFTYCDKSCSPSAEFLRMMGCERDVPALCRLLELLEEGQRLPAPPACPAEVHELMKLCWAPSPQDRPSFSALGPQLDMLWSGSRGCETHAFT
Chain of TYK2 JH1 (P29597 897-1176): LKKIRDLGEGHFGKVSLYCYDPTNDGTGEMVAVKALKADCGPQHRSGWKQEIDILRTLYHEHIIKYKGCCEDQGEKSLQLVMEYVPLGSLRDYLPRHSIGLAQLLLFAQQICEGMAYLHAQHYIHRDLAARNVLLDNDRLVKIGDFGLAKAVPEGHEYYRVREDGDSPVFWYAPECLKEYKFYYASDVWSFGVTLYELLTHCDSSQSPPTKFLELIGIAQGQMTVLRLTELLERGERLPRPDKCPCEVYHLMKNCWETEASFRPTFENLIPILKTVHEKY
Chain of JAK1 JH2 (P23458 583-855): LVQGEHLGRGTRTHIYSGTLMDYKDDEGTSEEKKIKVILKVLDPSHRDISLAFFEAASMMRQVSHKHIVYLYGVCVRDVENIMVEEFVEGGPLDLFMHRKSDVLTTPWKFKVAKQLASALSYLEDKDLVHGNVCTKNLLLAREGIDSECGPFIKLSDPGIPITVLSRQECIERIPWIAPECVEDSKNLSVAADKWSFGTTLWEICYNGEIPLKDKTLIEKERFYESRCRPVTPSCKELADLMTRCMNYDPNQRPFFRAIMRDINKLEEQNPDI
Chain of JAK2 JH2 (O60674 545-809): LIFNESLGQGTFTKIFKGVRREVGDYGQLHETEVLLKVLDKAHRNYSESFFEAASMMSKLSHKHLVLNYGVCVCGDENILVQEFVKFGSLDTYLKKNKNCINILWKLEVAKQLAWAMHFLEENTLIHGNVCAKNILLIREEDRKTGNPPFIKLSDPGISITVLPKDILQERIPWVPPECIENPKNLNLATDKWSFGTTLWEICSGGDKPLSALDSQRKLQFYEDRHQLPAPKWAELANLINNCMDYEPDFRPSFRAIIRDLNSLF
Chain of human TYK2 (JH2domain-pseudokinase) (P29597 556-888): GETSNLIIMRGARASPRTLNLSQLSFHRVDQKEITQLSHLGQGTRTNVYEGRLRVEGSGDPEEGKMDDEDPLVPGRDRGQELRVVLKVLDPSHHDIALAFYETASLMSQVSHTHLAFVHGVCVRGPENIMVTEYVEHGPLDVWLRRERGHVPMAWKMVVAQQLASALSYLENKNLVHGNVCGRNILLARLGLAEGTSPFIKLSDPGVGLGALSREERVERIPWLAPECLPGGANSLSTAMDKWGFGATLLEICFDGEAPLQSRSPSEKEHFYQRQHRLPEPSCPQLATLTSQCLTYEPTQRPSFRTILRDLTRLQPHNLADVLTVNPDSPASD

CNc1cc2nn3c(cnc13)C(=O)N[C@H](C)COCc1cc(c3c(c1)nnn3C)N2 [Compound 1]
Kd [1]: < 10 nM
Kd (TYK2 JH1): 1000 to 10000 nM
Kd (JAK3 JH1): ≥ 30000 nM
Kd (JAK2 JH2): 1000 to 10000 nM
Kd (JAK2 JH1): ≥ 30000 nM
Kd (JAK1 JH2): 10 to 1000 nM
Kd (JAK1 JH1): ≥ 30000 nM
IC50 (IFNa, PBMCs, p-STAT3): < 50 nM
IC50 [2]: < 50 nM
